In patent US11485733B2, “Azaquinoline derivatives” (BAYER ANIMAL HEALTH GMBH, priority 2017, dated 2022):
Several values for one entry are separate records, joined by “and”; a condition that tells them apart may be missing. Equal entries are not always repeated.

Key:
[1] = system: Haemonchus contortus; experiment: Haemonchus contortus larval mortality; conditions: 120 h, read-out: activity (percentage of larval mortality)
Description: In Vitro Assay 7: Haemonchus contortus
Solvent: Dimethyl Sulfoxide
Approximately 40 larvae of the red stomach worm (Haemonchus contortus) are transferred into a test tube containing compound solution.
After 5 days the percentage of larval mortality is recorded. 100% efficacy means all larvae are killed, 0% efficacy means no larvae are killed.

[2] = target: C. elegans Slo-1a (Caenorhabditis elegans, UniProt Q95V25); conditions: pE50 (negative decadic logarithm of EC50), CHO cells expressing C. elegans Slo-1a; voltage sensitive dye, 70 mM KCl
C. elegans Slo-1a, sequence (Q95V25 whole entry): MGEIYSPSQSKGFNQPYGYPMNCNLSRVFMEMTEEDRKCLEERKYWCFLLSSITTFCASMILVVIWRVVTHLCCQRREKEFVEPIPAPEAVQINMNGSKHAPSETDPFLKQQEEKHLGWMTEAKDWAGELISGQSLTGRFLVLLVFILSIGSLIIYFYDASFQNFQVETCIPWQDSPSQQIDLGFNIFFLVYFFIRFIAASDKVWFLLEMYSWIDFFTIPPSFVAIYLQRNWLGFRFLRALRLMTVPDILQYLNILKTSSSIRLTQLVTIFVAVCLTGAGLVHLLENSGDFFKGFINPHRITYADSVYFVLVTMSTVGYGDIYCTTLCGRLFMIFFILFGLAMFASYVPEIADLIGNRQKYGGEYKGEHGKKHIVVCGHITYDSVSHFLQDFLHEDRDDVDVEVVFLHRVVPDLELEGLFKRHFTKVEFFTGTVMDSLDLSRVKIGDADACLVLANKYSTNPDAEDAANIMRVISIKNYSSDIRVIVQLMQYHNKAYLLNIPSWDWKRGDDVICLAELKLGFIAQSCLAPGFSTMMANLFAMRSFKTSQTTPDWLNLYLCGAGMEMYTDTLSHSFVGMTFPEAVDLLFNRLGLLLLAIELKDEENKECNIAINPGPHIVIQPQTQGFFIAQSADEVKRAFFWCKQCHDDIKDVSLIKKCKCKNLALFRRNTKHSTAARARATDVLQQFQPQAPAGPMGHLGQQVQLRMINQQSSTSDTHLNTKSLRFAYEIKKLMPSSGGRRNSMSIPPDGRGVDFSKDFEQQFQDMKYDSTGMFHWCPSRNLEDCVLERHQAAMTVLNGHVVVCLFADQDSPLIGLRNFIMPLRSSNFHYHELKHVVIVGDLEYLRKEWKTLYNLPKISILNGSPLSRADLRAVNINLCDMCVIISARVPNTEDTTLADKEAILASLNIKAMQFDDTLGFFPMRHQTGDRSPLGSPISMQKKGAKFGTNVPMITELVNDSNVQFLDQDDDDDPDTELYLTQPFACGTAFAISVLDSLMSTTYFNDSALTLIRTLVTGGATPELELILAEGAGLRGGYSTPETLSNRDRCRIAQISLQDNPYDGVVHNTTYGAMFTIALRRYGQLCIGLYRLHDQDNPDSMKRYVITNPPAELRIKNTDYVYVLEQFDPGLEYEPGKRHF
Description: Generation of a Stable C. elegans CHO Cell Line
A CHO cell line was obtained from ATCC, code ATCC CRL-9096. […] The transfection solution included 300 μL OptiMEM (Life Technologies, Nr.: 31985), 2 μL (=6 μg) of plasmid DNA containing the C. elegans Slo 1a gene and 9 μL FugeneHD (Promega, Nr.: E2311), and was added to the cells prior to incubation for 48 hours at 37° C., 5% CO2. The transfection medium was exchanged for the selection medium which contains additional G418 (2 mg/ml, Invitrogen, Nr.: 10131) and the cells were seeded into 384 well plates (300 cells/well). After a few weeks, the remaining surviving cells were tested with a voltage sensitive dye (Membrane Potential Assay Kit, Molecular Devices Nr.: R8034) for K+ channel expression. Positive cell clones were purified by the limited dilution technique. For this the clone with the highest and most robust signal in the voltage sensitive dye assay was further subcloned (incubated) in 384 well plates (0.7 cells/well) in order to obtain clonal purity. This generated a final stable CHO cell line expressing the C. elegans Slo-1a.
Cells were cultured at 37° C. and 5% CO2 in MEMalpha with Gutamax I (Invitrogen, Nr.: 32571), supplemented with 10% (v/v) heat inactivated fetal bovine serum (Invitrogen, Nr.: 10500), G418 (1 mg/ml, Invitrogen, Nr.: 10131). Cells were detached using Accutase (Sigma, Nr.: A6964).
Membrane Potential Measurements
Laboratory compound testing was performed on 384-well microtiter plates (MTPs, Greiner, Nr.: 781092). 8000 cells/well were plated onto 384-well MTPs and cultured for 20 to 24 hours at 37° C. and 5% CO2. After removal of the cell culture medium, the cells were washed once with tyrode (150 mM NaCl, 0.3 mM KCl, 2 mM CaCl2, 1 mM MgCl2, 0.8 mM NaH2PO4, 5 mM Glucose, 28 mM Hepes, pH 7.4) and then loaded with the voltage sensitive dye of the Membrane Potential Assay Kit diluted in tyrode for 1 h at room temperature.
After starting the measurement of fluorescence using a FLIPR Tetra (Molecular Devices, Exc. 510-545 nm, Emm. 565-625 nm), test compounds were added followed by the addition of KCl tyrode (final assay concentration: 70 mM KCl, 2 mM CaCl2, 1 mM MgCl2, 0.8 mM NaH2PO4, 5 mM Glucose, 28 mM Hepes, pH 7.4, including the voltage sensitive dye). The measurement was completed after 7 minutes.
The data were evaluated by using the ActivityBase XLfit software (IDBS) for curve fitting and calculation of the half-maximal effective concentration (EC50) and are reported as negative decadic logarithm (pE50).

[3] = system: Dirofilaria immitis microfilariae; experiment: Dirofilaria immitis microfilariae (DIROIM L1) motility; conditions: 72 h, read-out: EC50 (reduction of motility)
[4] = system: Litomosoides sigmodontis third-stage larvae; experiment: Litomosoides sigmodontis (LTMOSI L3) larval motility; conditions: 72 h, read-out: EC50 (reduction of motility)
Description: In Vitro Assay 6: Litomosoides sigmodontis (LTMOSI L3)
10 Litomosoides sigmodontis third-stage larvae, which were freshly isolated from the pleural cavity of an infected rodent, were added to wells of a microtitre plate containing a nutrient medium and the test compound in DMSO. Compounds were tested in concentration-response assay in duplicate. Larvae exposed to DMSO and no test compounds were used as negative controls. Larvae were evaluated after 72 h of incubation with the compound. Efficacy was determined as the reduction of motility in comparison to the negative control. Based on the evaluation of a wide concentration range, concentration-response curves as well as EC50-values were calculated.

[5] = system: Cooperia curticei; experiment: Cooperia curticei larval mortality; conditions: 120 h, read-out: activity (percentage of larval mortality)
Description: In Vitro Assay 6: Cooperia curticei
Solvent: Dimethyl Sulfoxide
Approximately 40 nematode larvae (Cooperia curticei) are transferred into a test tube containing the compound solution.
After 5 days percentage of larval mortality is recorded. 100% efficacy means all larvae are killed; 0% efficacy means no larvae are killed.

[6] = system: Dirofilaria immitis; experiment: Dirofilaria immitis (DIROIM L4) larval motility; conditions: 72 h, read-out: EC50 (reduction of motility)
[7] = system: Nippostrongylus brasiliensis; experiment: Nippostrongylus brasiliensis (NIPOBR) adult worms, acetylcholine esterase readout; conditions: read-out: activity (reduction of AChE compared to negative control); for inhibition at 1 µg/mL: at 1 μg/ml (1 ppm)
Procedure, shortened: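 Adult worms washed in saline with penicillin/streptomycin/amphotericin B, then incubated in medium with test compound (DMSO) at final 10 μg/ml (10 ppm) or 1 μg/ml (1 ppm). Acetylcholine esterase activity in a medium aliquot served as anthelmintic readout, compared with negative control.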

[8] = target: D. immitis Slo-1 (Dirofilaria immitis, UniProt I0DFK5); experiment: D. immitis Slo-1, action at a recombinant CHO cell line (membrane potential, FLIPR); assay type: cell-based
D. immitis Slo-1, sequence (I0DFK5 1-1119): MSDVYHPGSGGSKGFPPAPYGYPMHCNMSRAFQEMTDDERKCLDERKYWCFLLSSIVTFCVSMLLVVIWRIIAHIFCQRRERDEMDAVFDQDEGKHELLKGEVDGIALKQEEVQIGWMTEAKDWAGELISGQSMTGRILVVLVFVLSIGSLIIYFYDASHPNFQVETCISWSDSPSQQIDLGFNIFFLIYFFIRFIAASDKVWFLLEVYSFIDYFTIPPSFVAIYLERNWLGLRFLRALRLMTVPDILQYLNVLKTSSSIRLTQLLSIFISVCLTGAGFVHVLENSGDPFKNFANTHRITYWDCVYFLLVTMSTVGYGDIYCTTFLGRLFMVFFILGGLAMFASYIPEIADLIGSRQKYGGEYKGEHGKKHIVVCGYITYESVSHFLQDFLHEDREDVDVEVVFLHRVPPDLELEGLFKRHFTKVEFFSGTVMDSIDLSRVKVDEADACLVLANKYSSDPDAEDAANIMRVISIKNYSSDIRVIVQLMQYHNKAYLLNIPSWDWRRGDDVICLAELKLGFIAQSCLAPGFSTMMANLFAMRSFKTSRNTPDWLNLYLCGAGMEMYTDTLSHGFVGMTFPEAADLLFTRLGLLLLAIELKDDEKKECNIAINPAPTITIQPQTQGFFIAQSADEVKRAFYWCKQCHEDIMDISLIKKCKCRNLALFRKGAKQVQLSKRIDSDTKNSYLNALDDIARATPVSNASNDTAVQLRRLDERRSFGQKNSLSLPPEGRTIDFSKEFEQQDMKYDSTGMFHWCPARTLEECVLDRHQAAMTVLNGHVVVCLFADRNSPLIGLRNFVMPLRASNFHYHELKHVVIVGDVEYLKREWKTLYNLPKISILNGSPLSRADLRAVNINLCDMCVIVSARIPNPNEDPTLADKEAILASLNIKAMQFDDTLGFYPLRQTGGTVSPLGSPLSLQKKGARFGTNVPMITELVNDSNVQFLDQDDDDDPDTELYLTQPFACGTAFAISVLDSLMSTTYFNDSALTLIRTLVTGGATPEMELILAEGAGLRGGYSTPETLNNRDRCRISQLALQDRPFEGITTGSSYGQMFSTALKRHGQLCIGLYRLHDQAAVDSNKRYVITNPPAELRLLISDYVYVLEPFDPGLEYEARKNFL

Row | Structure (SMILES) | mortality at 20 ppm [1] [%] | EC50 [2] | EC50 [3] [mg/L] | EC50 [4] [mg/L] | mortality at 4 ppm [5] [%] | mortality at 20 ppm [5] [%] | EC50 [6] [mg/L] | inhibition at 1 µg/mL [7] [%] | inhibition at 10 µg/mL ([7]; at 10 μg/ml (10 ppm)) [%] | EC50 [8] [µM]
1 | O=C(N[C@H]1CCOc2ccccc21)c1cnc2c(-c3cc(F)cc(F)c3F)nccc2c1N1CCOCC1 [Example T1-5, N-[(4S)-3,4-dihydro-2H-1-benzopyran-4-yl]-4-(morpholin-4-yl)-8-(2,3,5-trifluorophenyl)-1,7-naphthyridine-3-carboxamide] | 80 | 0.00316 to 0.0316 µM | < 0.1 | < 0.1 | 100 | 100 | < 0.1 | > 80 | > 80 | 0.0316 to 0.316
2 | CN(C)c1c(C(=O)N[C@H]2CCOc3ccccc32)cnc2c(-c3cc(Cl)cc(Cl)c3)ccnc12 [Example T3-1, 8-(3,5-Dichlorophenyl)-N-[(4S)-3,4-dihydro-2H-chromen-4-yl]-4-(dimethylamino)-1,5-naphthyridine-3-carboxamide] | 100 | 0.00316 to 0.0316 µM and < 0.00316 µM | < 0.1 | < 0.1 | 100 | 100 | < 0.1 | > 80 | – | 0.00316 to 0.0316
3 | CN(C)c1c(C(=O)N[C@H]2CCOc3ccccc32)cnc2c(-c3cccc(Cl)c3Cl)ccnc12 [Example T3-3, 8-(2,3-Dichlorophenyl)-N-[(4S)-3,4-dihydro-2H-chromen-4-yl]-4-(dimethylamino)-1,5-naphthyridine-3-carboxamide] | 100 | < 0.00316 µM | < 0.1 | < 0.1 | 100 | 100 | < 0.1 | > 80 | – | 0.00316 to 0.0316
4 | COc1c(C(=O)N[C@H]2CCOc3ccccc32)nnc2c(-c3cccc(Cl)c3Cl)cccc12 [Example T5-7, 8-(2,3-Dichlorophenyl)-N-[(4S)-3,4-dihydro-2H-chromen-4-yl]-4-methoxycinnoline-3-carboxamide] | 90 | < 0.00316 µM | < 0.1 | < 0.1 | 100 | 100 | < 0.1 | > 80 | – | 0.0316 to 0.316
